PMC5672024, “Selective Glucocorticoid Receptor Properties of GSK866 Analogs with Cysteine Reactive Warheads” (Frontiers in Immunology, 2017)

How the values were obtained:
[1] = test system: TNF-induced NFκB reporter gene activity in L929sA cells; experiment: p(NFκB)3-50luc reporter gene assay with TNF (NFκB transrepression); type: cell-based; conditions: TNF 2,500 IU/ml; for inhibition at 0.01 µM: L929sA, 10 nM compound
Description: (§1) In order to compare transactivation and transrepression potencies of the different synthesized GSK866 analogs, we performed GRE- and NFκB-luciferase-dependent reporter gene studies in stable transfected cell lines, as previously described ([3], [8]). HaCat cells expressing p(GRE)2 50-Luc and L929sA cells expressing p(GRE)250-Luc or p(NFκB)350-Luc were cultured in DMEM medium with 1% L-glutamine, supplemented with 10% feral bovine serum (FBS), 100 µg/ml streptomycin, and 100 IU/mL penicillin in a humidified 5% CO2 atmosphere. Cells were passaged every 2 days at a dilution of 1:6. Reporter gene cells were plated at a density of 0.5 × 10^5 cells/well in 24 well plates and grown overnight. p(GRE)250-Luc-dependent reporter gene cells were treated with solvent (DMSO) or compound (100 fM, 1 nM, 10 nM, 100 nM, and 1 µM) for 6 h, whereas in case of p(NFκB)350-Luc, TNF (2,500 IU/mL) was added 2 h following compound treatment. After incubation with the compounds, medium was removed and cells were washed twice with PBS followed by adding 100 µl of 1× lysis buffer (0.2 M K2HPO4, 0.2 M KH2PO4, Triton X-100, pH 7.6). 25 µl of lysate was assayed for luciferase activity by adding 50 µl of luciferase assay substrate (1 mM luciferin or luciferin salt, 3 mM ATP, and 15 mM MgSO4 in 30 mM HEPES buffer, pH 7.8) followed by 10 s mixing and measuring 1 s bioluminescence using an Envision multilabel reader (Perkin Elmer).
(§2) Figure 3 Selective glucocorticoid receptor agonist GSK866 analogs UAMC-1217, UAMC-1218 but not UAMC-1158 and UAMC-1159 elicit selective glucocorticoid receptor-transactivation and NFκB-transrepression properties. Glucocorticoid response element (GRE)- and NFκB-luciferase-dependent reporter gene assays were performed in L929sA and HaCat reporter cells which were stably transfected with, respectively, p(NFκB)3-50luc or p(GRE)2-50-luc constructs. For p(GRE)2-50-luc reporter assays, cells were solvent-treated or induced with different concentrations of Dex (A), Dex-mesylate (Dex-Mes) (A), SEGRA GSK866 (C) or analogs UAMC-1158 (D), UAMC-1159 (E), UAMC-1217 (F), and UAMC-1218 (G) as indicated for a total exposure time of 6 h, whereas cells were cotreated for TNF (2,500 IU/ml) in the last 4 h for p(NFkB)3-50luc reporter assays (B–G). Corresponding lysates were assayed for luciferase activities and normalized for protein content as described in the Section “Materials and Methods.” Promoter activities are expressed as relative induction factor (± standard deviation) i.e., the ratio of expression levels recorded either at induced and non-induced conditions, with the latter taken to be 1.

[2] = test system: GR; design: method as in PMID 27612544; conditions: ref [14], cited from earlier work; for % inhibition of GR ligand binding: 1.5 nM [3H]-dexamethasone, 1 µM ligand
[3] = test system: GR transactivation, p(GRE)2-50-luc reporter in HaCat cells; experiment: p(GRE)2-50-luc reporter gene assay (GR transactivation); type: cell-based; conditions: 6 h, 10 nM
Description: as §1, §2

[4] = test system: recombinant GR-LBD (hGR); experiment: Mass spectrometry of tryptic peptides of recombinant GR-LBD after ligand incubation (covalent binding); design: species or system human; conditions: 2 h at 37°C, trypsin digestion, LC-MS/MS
Description: Recombinant His6-MBP-mCaspase3 site-LBD-hGR was expressed in the Escherichia coli strain BL21codon + pICA2 that was transformed with the corresponding pLHM36LBD-hGR plasmid and in which expression was induced by Isopropyl β-D-1-thiogalactopyranoside (IPTG) under control of a pL-promotor. The transformed bacteria were grown in Luria Bertani medium supplemented with ampicillin (100 µg/ml) and kanamycin (50 µg/ml) overnight at 28°C before 1/100 inoculation in 12 × 0.5 l provided with Luria Bertani medium supplemented with ampicillin (100 µg/ml) and 1% glycerol in a shaker incubator. The cells were grown to an optical density at AU 600 nm of 0.65, transferred to 20°C and expression was induced by addition of 1 mM IPTG overnight. Cells were then harvested and frozen at −20°C. […] After thawing, the cells were re-suspended at 3 ml/g in cold 20 mM Tris-HCl pH 7.4, 200 mM NaCl, 1 mM EDTA, 1 tablet complete protease inhibitor cocktail from Roche/50 ml, and 10 mM β-mercaptoethanol. The cytoplasmic fraction was prepared by sonication of the cells on ice and isolated by centrifugation at 18,000 × g for 30 min. All further purification steps were conducted at 4°C. The clear supernatant was applied to an amylase column (BioLabs, XK26 × 20, 100 ml), equilibrated with 20 mM Tris–HCl pH 7.4, 200 mM NaCl, 1 mM EDTA, and 10 mM β-mercaptoethanol. The column was eluted with 20 mM Tris–HCl pH 7.4, 200 mM NaCl, 1 mM EDTA, 10 mM maltose, and 10 mM β-mercaptoethanol. […] Recombinant purified His-MBP-DEVD-GR-LBD fusion protein was dissolved at a concentration of 1 mg in 1.7 ml PBS buffer.
Each aliquot was incubated 2 h at 37°C. […] 120 µl of each sample was loaded onto a spin column and the flow-through was collected (1,500 × g, 2 min). Trypsin (5 µl of 20 mM stock solution) was added, and the samples were incubated 20 h at 37°C. Then, 0.1% FA (formic acid) (41.5 µl) and 20 mM TCEP in 0.1% FA (18.5 µl, 5.7 mg TCEP/ml) were added [final volume = 185 µl, final concentration TCEP = 2 mM, 1 µg material/2.5 μl], and the samples were subjected to LC–MS/MS analysis.
The obtained peptide mixtures were introduced onto an LC–MS/MS system; the Ultimate 3000 RSLC nano (Dionex, Amsterdam, The Netherlands) in-line connected to an LTQ-Orbitrap Velos (Thermo Fisher Scientific, Bremen, Germany). The sample mixture was loaded on a trapping column [made in-house, 100 µm internal diameter (I.D.) × 20 mm, 5 µm C18 beads (Reprosil-HD, Dr. Maisch)]. After back flushing from the trapping column, the sample was loaded on a reverse-phase column [made in-house, 75 µm I.D. × 150 mm, 5 µm C18 beads (Reprosil-HD, Dr. Maisch)].
The mass spectrometer was operated in data-dependent mode, automatically switching between MS and MS/MS acquisition for the 10 most abundant peaks in a given MS spectrum. […]

[5] = test system: GR; experiment: Cell-based GR ligand-binding competition assay with [3H]-dexamethasone; conditions: from IC50 values of ligand displacement assays; ref [14]
[6] = test system: GILZ/TSC22D3 mRNA; experiment: qPCR of GR target gene GILZ/TSC22D3 in HaCat cells; type: cell-based; conditions: 6 h, 10, 100 or 1,000 nM, compared with Dex
Description: qPCR was performed using the GoTaq qPCR Master Mix (Promega) according to manufacturer’s instructions. In short, a 25 µl reaction volume mix per sample was prepared containing 12.5 µl GoTaq qPCR Master Mix, 0.4 µM forward and reverse primer, and nuclease-free water. We used the Rotor-Gene Q qPCR machine of Qiagen with following PCR program: 95°C for 2 min, 40 cycli denaturation (95°C, 15 s) and annealing/extension (60°C, 30 s), and dissociation (60–95°C). […] Each sample was run in triplicate. The median value of the triplicates were taken to calculate the deltaCt-values using GAPDH as the normalization gene.
(A) QPCR assays was performed against the GR target gene GILZ/TSC22D3 in HaCat cells treated for 6 h with different concentrations 10, 100 or 1,000 nM Dex or UAMC-1217. Bar graph plot represents the relative mRNA levels of GILZ/TSC22D3 upon Dex or UAMC-1217 treatment. (B) QPCR assays was performed against the TNF-inducible inflammatory gene interleukin-6 (IL6) in HaCat cells treated for 6 h with different concentrations 10, 100, or 1,000 nM Dex or UAMC-1217 either or not, cotreated for the last 4 h with TNF (2,500 IU/ml) as indicated in panel (B). […] Significant mean differences versus control setups panel (A) or TNF treated setup panel (B) are marked as *** (P < 0.001), **(P < 0.01), * (P < 0.05) and were determined by one-way ANOVA (Dunnetts Posttest).

| Structure (SMILES) | inhibition at 0.01 µM [1] [%] | % inhibition of GR ligand binding [2] [%] | NFκB transrepression in NFκB-luc reporter ([1]; dose range) | GR transactivation in GRE-luc reporter at 10 nM [3] | Modifications: GR-LBD cysteine-containing peptide covalently bound [4] | Modifications: GR-LBD cysteine-containing peptide covalently bound ([4]; listed as 1217) | fold lower GR-LBD affinity versus GSK866 [5] | IC50 ([2]; displacement of radiolabeled Dex, read-out: IC50 (GR radioligand binding)) [µM] | Ki ([2]; displacement of radiolabeled Dex, read-out: Ki (GR radioligand binding)) [µM] | GILZ/TSC22D3 gene expression [6] |
| --- | --- | --- | --- | --- | --- | --- | --- | --- | --- | --- |
| C[C@@H]1C[C@H]2[C@@H]3CCC4=CC(=O)C=C[C@]4(C)[C@@]3(F)[C@@H](O)C[C@]2(C)[C@@]1(O)C(=O)CO [Dex, Dexamethasone, reference compound] | 40 to 45 | 100 |  |  |  |  |  |  |  |  |
| CCN(C[C@@](O)(CNC(=O)c1cnn(-c2ccc(F)cc2)c1N)C(F)(F)F)C(=O)c1c(Cl)ccc(NC(=O)CCl)c1Cl [UAMC-1217] | ~95 | 92 | dose-dependent NFκB-transrepression effects | significantly reduced GR transactivation to levels below transactivation observed with 10 nM of Dex | Cys-622 | Peptide 615–633 → C622 | approx. 5 fold | 0.022 | 0.011 | reduced transactivation effects |
